Measured values from patent EP3851117A1, “INHIBITORS OF INTRACELLULAR BACTERIAL GROWTH AND PERSISTENCE AS ANTIBIOTICS” (Consejo Superior de Investigaciones Científicas (CSIC), priority 2020, dated 2021).
≈ marks a conversion by molar mass, not a printed value. Entries after “also recorded” stand apart in the source; their conditions may differ.

Key:
[1] = test system: S. Typhimurium mutants lacking PBP3SAL; experiment: Spot dilution assay on PCN plates with antibiotic; type: cell-based; conditions: pH 4.6
Protocol: (§1) PCN plates for spot dilution assays were prepared by mixing 7.5 ml of sterile PCN medium (2x concentrated) at the desired pH and 7.5 ml of autoclaved agar (30 mg/mL). The mixture was supplemented with 0.01% (w/v) yeast extract (YE). Cultures were grown in PCN pH 4.6 medium overnight and adjusted to same optical density values. These cultures were serially 10-fold diluted. 5 µl of each dilution was spotted onto PCN plates with or without antibiotic added.

[2] = test system: S. Typhimurium (wild-type); experiment: Spot dilution assay on PCN plates with antibiotic; type: cell-based; conditions: MEC 5 µg/mL, ATM 0.125 µg/mL
Protocol: as §1

[3] = test system: S. Typhimurium wild-type bacteria; experiment: Antibiotic susceptibility with MIC strips (E-test) on PCN agar plates with 0.01% YE; type: cell-based; conditions: for MIC: Salmonella enterica, TYPHIMURIUM; for susceptibility following the switch to acid pH: switch to acid pH (4.6), PBP3SAL expression
Text: (§2) S. Typhimurium cultures grown in PCN 4.6 were normalized to an optical density at 600 nm (OD600) of 0.1 and diluted 1:10. One hundred twenty microliters of this dilution were spread onto PCN plates using glass beads. The assays were repeated at least in three independent biological replicates.

[4] = test system: intra-phagosomal S. Typhimurium lacking PBP3SAL in RAW 264.7 macrophages; experiment: Macrophage infection and colony-forming unit counting; type: cell-based; conditions: 10 µg/mL added to infected macrophages; compared with bacteria lacking PBP3
Protocol: The murine macrophage line RAW 264.7 (400319, Cell Lines Service, CLS, https://clsgmbh.de/) was cultured in Dulbecco's modified Eagle's medium (DMEM) with 5% fetal bovine serum (FBS) and 4 mM glutamine in an incubator at 37°C in a 5% CO2 atmosphere. RAW 264.7 macrophages were seeded in 24-well plates (353047, Falcon) at a density of 2x10^5 cells/well and pre-cultured for 24 h before infection. Macrophages were activated with 2.5 ng/ml interferon-γ (315-05, Peprotech) 24 h prior infection. Culture medium was replaced by fresh medium without interferon-γ and infected with S. Typhimurium strains at a multiplicity of infection (MOI) of 10:1 during 10 min. Macrophages were washed with PBS supplemented with 0.5 mM MgCl2 and 0.9 mM CaCl2 (complete PBS) and extracellular non-phagocytosed bacteria were killed by incubation in medium containing gentamicin (100 µg/ml for 1 h, followed by 10 µg/ml for the remaining incubation). If indicated, aztreonam (ATM) (10 µg/mL) was added at 1 hpi. Infected macrophages were lysed at 1 and 8 hpi. Colony-forming units (CFU) were determined after two washes of the culture with complete PBS buffer, lysis with sterile solution containing 1% (w/v) Triton X 100 and 0.1% (w/v) sodium dodecyl sulfate (SDS) in PBS and plating on LB pH 7.0 or LB pH 4.6. The assays were repeated at least in three independent biological replicates.

[5] = test system: S. Typhimurium wild-type bacteria; experiment: BALB/c mice challenge, bacterial load in spleen; type: in vivo; conditions: intraperitoneal, every 24 h
Protocol: (§3) Groups of three 8-week-old female BALB/c mice were inoculated with the following isogenic strains: MD5064 (PBP2SAL::3xFlag PBP3SAL::3xFlag), MD5063 (ΔPBP2, ΔPBP2SAL), MD5544 (ΔPBP2 ΔPBP2SAL pPBP2SAL::PBP2), MD5542 (ΔPBP3, ΔPBP3SAL and ΔPBP3 ΔPBP3SAL pPBP3SAL::PBP3). The doses used were 2x10^3 CFU in 200 µl of sterile PBS. Along four days, mice received intraperitoneally every 24 h a regime consisting in 10 mg mecillinam (MEC) or 2.5 mg aztreonam (ATM) per animal in 200 µl of sterile water. Mice were sacrificed four days post inoculation and spleens homogenized in 5 ml of sterile PBS. Aliquots (100 µl) of 10-fold serial dilutions of the homogenates were cultured in LB pH 4.6 plates to quantify the number of viable S. Typhimurium. To detect PBPs in vivo, spleen extracts from three mice were prepared at 72 hpi as described previously (Dominguez-Bernal, G. et al. Mol Microbiol. 2004; 53: 1437-1449). The protocols used in the study were approved by the Consejería de Medio Ambiente de la Comunidad de Madrid (ref. PROEX 110/19).

[6] = test system: S. Typhimurium mutant lacking PBP3; experiment: BALB/c mice challenge, bacterial load in spleen; type: in vivo; conditions: intraperitoneal, every 24 h
Protocol: as §3

[7] = test system: S. Typhimurium bacteria lacking PBP3SAL; experiment: BALB/c mice challenge, bacterial load in spleen; type: in vivo; conditions: intraperitoneal, every 24 h
Protocol: as §3

[8] = test system: S. Typhimurium bacteria lacking PBP3 (ΔPBP3 mutant); experiment: Antibiotic susceptibility with MIC strips (E-test) on PCN agar plates with 0.01% YE; type: cell-based; conditions: Salmonella enterica, pH 4.6, read-out: MIC value
Protocol: as §2, with “Antibiotic susceptibility was determined using MIC strips (MIC Test Strip; Liofilchem) in PCN agar plates containing 0.01% YE at neutral or acid pH 4.6. S.” for “S.”

[9] = test system: S. Typhimurium mutant lacking PBP2; experiment: Spot dilution assay on PCN plates with antibiotic; type: cell-based
Protocol: as §1

[10] = test system: S. Typhimurium mutant lacking PBP2SAL; experiment: Spot dilution assay on PCN plates with antibiotic; type: cell-based; conditions: pH 4.6
Protocol: as §1

[11] = test system: S. Typhimurium mutant lacking PBP2; experiment: BALB/c mice challenge, bacterial load in spleen; type: in vivo; conditions: intraperitoneal, every 24 h
Protocol: as §3

[12] = test system: S. Typhimurium bacteria lacking PBP2SAL; experiment: BALB/c mice challenge, bacterial load in spleen; type: in vivo; conditions: intraperitoneal, every 24 h
Protocol: as §3

[13] = pH 4.6, PCN-0.01% yeast extract

`C[C@H]1[C@H](NC(=O)/C(=N\OC(C)(C)C(=O)O)c2csc(N)n2)C(=O)N1S(=O)(=O)O` [ATM, aztreonam] was tested, and the antimicrobial activity [1] was “showed antimicrobial activity”, the “susceptibility (bacterial growth)” value [2, 13] was “not at pH 4.6; also recorded: resistant” and the “susceptibility (bacterial growth)” value ([2]; pH 7.4) was “inhibit bacterial growth; also recorded: susceptible”. For the same molecule, the MIC ([3]; pH 4.6) was 0.125 µg/mL (≈ 0.287 µM), the MIC ([3]; pH 7.4) was under 0.016 µg/mL and the “susceptibility of intra-phagosomal bacteria” value [4] was “more susceptible”. For the same molecule, the “load of bacteria in spleen” value [5] was “did not result in a statistically significant decrease”, the “effect on bacterial loads” value [6] was “lesser effect” and the bacterial loads [7] was “significant decrease of bacterial loads”. For the same molecule, the MIC [8] was 0.75 µg/mL (≈ 1.72 µM).
For `CC1(C)S[C@@H]2[C@H](/N=C/N3CCCCCC3)C(=O)N2[C@H]1C(=O)O` [MEC, mecillinam], the susceptibility ([9]; pH 4.6) was “does not alter susceptibility”, the susceptibility ([9]; pH 7.4) was “resistant” and the susceptibility [10] was “does not alter susceptibility”. The “susceptibility (bacterial growth)” value [2, 13] was “not at pH 4.6”, the “susceptibility (bacterial growth)” value ([2]; pH 7.4) was “inhibit bacterial growth” and the “load of bacteria in spleen” value [5] was “did not result in a statistically significant decrease; also recorded: slightly effect of reduced viability”. For the same molecule, the “effect on bacterial loads” value [11] was “lesser effect” and the bacterial loads [12] was “significant decrease of bacterial loads”.
For `CO/N=C(\C(=O)N[C@@H]1C(=O)N2C(C(=O)O)=C(COC(C)=O)CS[C@H]12)c1csc(N)n1` [cefotaxime], the “susceptibility following the switch to acid pH” value [3] was “decreased susceptibility”.
With `CC(C)(O/N=C(\C(=O)N[C@@H]1C(=O)N2C(C(=O)[O-])=C(C[n+]3ccccc3)CS[C@H]12)c1csc(N)n1)C(=O)O` [ceftazidime] the “susceptibility following the switch to acid pH” value [3] was “decreased susceptibility”.
With `CO/N=C(\C(=O)N[C@@H]1C(=O)N2C(C(=O)O)=C(COC(N)=O)CS[C@H]12)c1ccco1` [cefuroxime] the “susceptibility following the switch to acid pH” value [3] was “decreased susceptibility”.
For `CC(=O)OCC1=C(C(=O)O)N2C(=O)[C@@H](NC(=O)Cc3cccs3)[C@H]2SC1` [cephalotin], the “susceptibility following the switch to acid pH” value [3] was “decreased susceptibility”.
